What was measured:
[1] = test system: TNFα; assay: LPS-induced TNFα release in THP-1 cells; type: cell-based; conditions: Homo sapiens, THP-1, THP1 cells
Method: THP-1 cells, a human monocytic cell line, were stimulated with 3 μg/mL of LPS (from E. Coli; 0111:B4, Sigma) for 4 hr and the supernatant collected for determination of the TNFα concentration by sandwich ELISA (Duo-set, R&D systems). The inhibition of TNFα production was calculated at each concentration by comparison with vehicle control.

[2] = test system: TNFα; assay: LPS-induced TNFα release in d-U937 cells; type: cell-based; conditions: Homo sapiens, dU937, dU937 cells; relative to 10 μg/mL BIRB796; read-out: LPS Induced Release TNFα REC50 (dU937)
Outline: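 U937 cells differentiated with PMA (100 ng/mL, 48–72 hr) were pre-incubated with compound for 2 hr, then stimulated with E. coli O111:B4 LPS (0.1 μg/mL) for 4 hr. Supernatant cytokine measured by sandwich ELISA; inhibition vs vehicle control at each concentration, REC50 taken from the concentration-response curve.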

[3] = test system: IL-8; assay: Rhinovirus-induced IL-8 release in BEAS2B cells; type: cell-based; conditions: Homo sapiens, BEAS-2B
Outline: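 BEAS2B cells infected with HRV RV16 at MOI 5 for 2 h at 33 °C, washed, then cultured 72 h; compounds given 2 h before infection and again after washout. IL-8 measured in supernatant by ELISA; surface ICAM-1 by cell-based ELISA (OD450–655), normalised to crystal violet cell count (OD595).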

[4] = test system: HRV16; assay: HRV16 induced CPE in MRC5 cells; type: cell-based; conditions: Human rhinovirus sp.; for inhibition at 0.04 µg/mL: HRV16, MRC5, at 0.04 μg/mL, read-out: HRV CPE (MRC5) % inhibition
Method: The supernatants were aspirated, and then fresh media added followed by incubation for 4 days. Where appropriate, cells were pre-incubated with compound or DMSO for 2 hr, and the compounds and DMSO added again after washout of the virus.
The percentage inhibition for each well was calculated. The IC50 value was calculated from the concentration-response curve generated by the serial dilutions of the test compounds.

[5] = test system: RSV A2; assay: In vitro RSV virus load (F-protein ELISA) in primary bronchial epithelial cells; type: cell-based, respiratory syncytical virus; conditions: human respiratory syncytial virus, Primary bronchial epithelial cell; for inhibition at 0.04 µg/mL: at 0.04 μg/mL, read-out: RSV (F-Elisa) (HBEC) % inhibition
Method: Normal human bronchial epithelial cells (NHBEC) grown in 96 well plates were infected with RSV A2 (Strain A2, HFA, Salisbury, UK) at an MOI of 0.001 in the LHC8 Media:RPMI-1640 (50:50) containing 15 mM magnesium chloride and incubated for 1 hr at 37° C. for adsorption. The cells were then washed with PBS (3×200 μL), fresh media (200 μL) was added and incubation continued for 4 days. Where appropriate, cells were pre-incubated with the compound or DMSO for 2 hr, and then added again after washout of the virus.
The cells were fixed with 4% formaldehyde in PBS solution (50 μL) for 20 min, washed with washing buffer (3×200 μL; PBS including 0.5% BSA and 0.05% Tween-20) and incubated with blocking solution (5% condensed milk in PBS) for 1 hr. Cells were then washed with washing buffer (3×200 μL) and incubated for 1 hr at RT with anti-RSV (2F7) F-fusion protein antibody (40 μL; mouse monoclonal, lot 798760, Cat. No. ab43812, Abcam) in 5% BSA in PBS-tween). After washing, cells were incubated with an HRP-conjugated secondary antibody solution (50 μL) in 5% BSA in PBS-Tween (lot 00053170, Cat.No. P0447, Dako) and then TMB substrate (50 μL; substrate reagent pack, lot 269472, Cat. No. DY999, R&D Systems, Inc.) was added. This reaction was stopped by the addition of 2N H2SO4 (50 μL) and the resultant signal was determined colorimetrically (OD: 450 nm with a reference wavelength of 655 nm) in a microplate reader (Varioskan® Flash, ThermoFisher Scientific).
After washing with washing buffer, 1% SDS in distilled water (100 μL) was added to each well, and plates were shaken lightly on the shaker for 1 hr prior to reading the absorbance at 595 nm. The measured OD450-655 readings were corrected to the cell number by dividing the OD450-655 by the OD595 readings. The percentage inhibition for each well was calculated and the IC50 value was calculated from the concentration-response curve generated from the serial dilutions of compound.

[6] = test system: PBMC; assay: Cell mitosis assay; type: cell-based; conditions: Homo sapiens; for inhibition at 5 µg/mL: read-out: Mitosis Assay % inhibition in PBMC Cells at concn 5 μg/mL
Outline: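 PBMCs from healthy donors, stimulated 48 hr with 2% PHA, then exposed 20 hr to test compounds; demecolcine 0.1 μg/mL added 2 hr before harvest for metaphase arrest. Cells fixed/permeabilised, stained with anti-phospho-histone 3 and propidium iodide; mitotic cells counted by flow cytometry gated on lymphocytes.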

SMILES	IC50 [1] [nM]	EC50 [2] [nM]	inhibition at 0.04 µg/mL ([3]; at 0.04 μg/mL, read-out: HRV IL-8 (BEAS2B) % inhibition) [%]	inhibition at 0.04 µg/mL [4] [%]	inhibition at 0.04 µg/mL [5] [%]	inhibition at 5 µg/mL [6] [%]	IC50 ([3]; BEAS2B cells, HRV-16) [nM]	IC50 ([4]; HRV16, MRC5 cells, HRV-16) [nM]	IC50 ([5]; read-out: RSV (F-Elisa) (HBEC) IC50) [nM]	inhibition at 1 µg/mL ([6]; read-out: Mitosis Assay % inhibition in PBMC Cells at concn 1 μg/mL) [%]
Cc1ccc(-n2nc(C(C)(C)C)cc2NC(=O)Nc2ccc(Oc3ccnc(Nc4cccc(O)c4)n3)c3ccccc23)cc1 [Example 2, 1-(3-(tert-Butyl)-1-(p-tolyl)-1H-pyrazol-5-yl)-3-(4-((2-((3-hydroxyphenyl)amino)pyrimidin-4-yl)oxy)naphthalen-1-yl)urea]	2.8	2.4	100	5	42	70.6				
Cc1ccc(-n2nc(C(C)(C)C)cc2NC(=O)Nc2ccc(Oc3ccnc(Nc4ccccc4)n3)c3ccccc23)cc1 [Example 1, 1-(3-(tert-Butyl)-1-(p-tolyl)-1H-pyrazol-5-yl)-3-(4-(2-(phenylamino)pyrimidin-4-yloxy)naphthalen-1-yl)urea]	3.4	2.3		57	85	31.3	0.036	17.1	15.4	13.7

— patent publication US10238658B2, “1-pyrazolyl-3-(4-((2-anilinopyrimidin-4-yl) oxy) napththalen-1-yl) ureas as p38 MAP kinase inhibitors” (Respivert Limited, priority 2011, dated 2019)
